Results published in PMC3058180 (Journal of pharmaceutical sciences, 2010).

System: A/Wuhan/359/95 E119V (oseltamivir-resistant)
Assay type: cell-based, influenza A virus
Settings: read-out: IC50 (nM of Zanamivir)

Structure (SMILES): CC(=O)N[C@H]1[C@H]([C@H](O)[C@H](O)CO)OC(C(=O)O)=C[C@@H]1N=C(N)N [compound 1, Zanamivir]
- IC50: 48000 nM
